Holding throughout (assay type): cell-based, E. coli
One experiment deals with AG 102 mar mutant. As to the kind of experiment: Gradient plate assay, MIC of antibiotics in AG 102 with plasmids. The following applies: Escherichia coli. The protocol: To establish further the inhibitory efficacy of antisense marA sequences, KMN23 (the same DNA vector described above, containing both the marR and the marA genes cloned in the antisense direction) was also expressed in the presence of various antibiotics (tetracycline (Tet), chloramphenicol (Cml), ampicillin (Amp) and rifampicin (Rif). The effect of KMN23 was assessed by measuring cell growth inhibition by the gradient plate method as described in Example 9. The results are shown in TABLE 3.
(§1) Bacterial susceptibility to tetracycline hydrochloride, chloramphenicol, ampicillin, kanamycin, rifampin, nalidixic acid and norfloxacin was assayed by the gradient plate method. (Microbiology: Including Immunology and Molecular Genetics (3rd ed.)(Davis et al. eds.(1980)J. P. Lippincott Co., Philadelphia, Pa.).

Experiment [1] concerns ML308-225-C2 (Mar mutant). As to the kind of experiment: Augmentation of bactericidal activity of norfloxacin by oligonucleotides, colony counts.
A further experiment has as its system ML308-C2. The experiment can be described thus: MIC on antibiotic gradient plates in Mar mutant ML308-C2. To be noted: Escherichia coli, read-out: MIC of norfloxacin. How it is done: Antibiotic resistant mutants of ML308-225 (Rahman et al. (1991) Antisense Res. Dev. 1:319-327) were grown and maintained at 30° C. in LB broth. These mutants were selected by spreading washed overnight cultures onto a LB agar plate containing chloramphenicol (5 μg/ml, Sigma, St. Louis, Mo.) and incubated at 30° C for 48-72 hours. Single colonies appearing after 48 hours were picked for further study.
One mutant showing increased minimal inhibitory concentrations (hereinafter referred to as MIC) to tetracycline, chloramphenicol, ampicillin, nalidixic acid, and norfloxacin was selected and designated ML308-C2. Sequencing confirmed a C® T substitution in amino acid 117 of marR, which results in a truncated MarR protein. […] Northern analysis using a marA DNA probe confirmed that ML308-C2 over expresses marA and was a Mar mutant (unpublished data).
as §1

The structures appear in SMILES notation. Where “and” joins values, the source holds several entries; their conditions need not be identical. Equal entries are not always repeated.

In the case of `CC1(C)S[C@@H]2[C@H](NC(=O)[C@H](N)c3ccccc3)C(=O)N2[C@H]1C(=O)O` [Amp, ampicillin], in the experiment with AG 102 mar mutant, the MIC is 17.7 µg/mL.

On to `O=C(N[C@H](CO)[C@H](O)c1ccc([N+](=O)[O-])cc1)C(Cl)Cl` [Cml, chloramphenicol], for which the MIC in the experiment with AG 102 mar mutant worked out at 34.2 µg/mL. For `CCn1cc(C(=O)O)c(=O)c2cc(F)c(N3CCNCC3)cc21` [Norfloxacin, norfloxacin], in experiment [1] (Escherichia coli, norfloxacin 0.5 µg/mL alone, 1 hour, Table 5, read-out: % OF CONTROL (untreated cells)), the activity at 0.5 µg/mL is 65%. For the same compound, the “% OF CONTROL CELLS” value in experiment [1] (norfloxacin 0.5 μg/ml alone, oligo 1284 0 μM, duplicate experiments) was 71% and 57%. The MIC with ML308-C2 came to 0.5 µg/mL. For `CO[C@H]1/C=C/O[C@@]2(C)Oc3c(C)c(O)c4c(O)c(c(/C=N/N5CCN(C)CC5)c(O)c4c3C2=O)NC(=O)/C(C)=C\C=C\[C@H](C)[C@H](O)[C@@H](C)[C@@H](O)[C@@H](C)[C@H](OC(C)=O)[C@@H]1C` [Rif, rifampicin], the MIC with AG 102 mar mutant was found to be 8.8 µg/mL. In the case of `CN(C)[C@@H]1C(O)=C(C(N)=O)C(=O)[C@@]2(O)C(O)=C3C(=O)c4c(O)cccc4[C@@](C)(O)[C@H]3C[C@@H]12` [Tet, tetracycline], in the experiment with AG 102 mar mutant, the MIC worked out at 12.5 µg/mL.

The record behind these values is US20030032612A1 (priority 1997, published 2003).
